Experimental findings from US11331272B2, “Hyperstabilized liposomes increase targeting of mitotic cells” (TEMASEK LIFE SCIENCES LABORATORY LIMITED, priority 2017, dated 2022) are described below.

One series deals with HCT116 xenografts. Briefly: Efficacy study in HCT116 xenografted mice (tumor volume, complete responses, survival). Type of series: in vivo, NCr Nude mice. As to conditions: free 100 mg/kg, responders/treated mice. The protocol: All animal experiments were approved by the Institutional Animal Care and Use Committee of Temasek Life Sciences Laboratory and National University of Singapore (NUS). Female NCr Nude mice (Ages 5-8 weeks) were purchased from (Singapore/InVivos) and subcutaneously xenografted with HCT116 cells. HCT116 cells were grown as described above in 600 cm^2 dishes (Corning) and each dish was used to graft 5 mice when confluence reached ˜80%.
(§1) Free BI 2536 (dissolved in 0.1 N HCl, saline) or the indicated liposomal BI 2536 formulations were administered by slow tail vein injection 7 days post grafting with HCT116. Tumor volumes were at least 150 mm^3 and calculated using length×width^2×0.5. All measurements were performed using vernier calipers and mice were weighed every other day. Mice were subcutaneously hydrated with 1 ml Hartmann's solution daily for 5 days post treatment to ensure that the mice were fully hydrated.

The nature of series [1]: Hexanol extraction of BI 2536 from salt solutions. Conditions: pH 3. Format: physicochemical. The protocol:
BI 2536 was first dissolved in ethanol and then coated onto 1.5 ml microfuge tubes by spin drying. BI 2636-coated tubes were then further dried overnight under high vacuum before resuspending in the indicated salt solutions to achieve a final concentration of 500 μM. To ensure complete dissolution of coated BI2536, tubes were briefly vortexed and subjected to bath sonication for 1 minute before being used for characterization.
BI 2536 from 1 ml of the indicated buffer was extracted with 100 μl 1-hexanol (Merck) by brief shaking for 1 hour. Hexanol and buffer layers were separated by brief centrifugation and 20 ul of the hexanol layer was analyzed for fluorescence intensity using the Tecan plate reader (Ex: 330 nm, Em: 370 nm).

Series [2] in a line: Toxicity / body weight in HCT116 xenografted mice. As to conditions: NCr Nude, mouse, in vivo, intravenous, tail vein injection, read-out: maximum tolerated dose. The protocol:
as §1

`CC[C@@H]1C(=O)N(C)c2cnc(Nc3ccc(C(=O)NC4CCN(C)CC4)cc3OC)nc2N1C1CCCC1` [Free Drug, BI 2536]: the “Complete Responses, Double Dose” value with HCT116 xenografts (doses at days 0 and 7, liposomal 340 mg/kg) is reported as 0/8. Further, in the series on HCT116 xenografts (single dose at day 0, liposomal 340 mg/kg), the “Complete Responses, Single Dose” value is reported as 0/10. For the same molecule, the “hexanol-extraction efficiency as anion concentration rises” value was “decreased” in series [1] (anions M, C, H) and “increased” in series [1] (anions P, A). In series [2], the MTD is 100 mg/kg.
